Patent US20100004193A1, “COMBINATION THERAPY” (FONDAZIONE PER LA RICERCA BIOMEDICA AVANZATA ONLUS - …, priority 2008, published 2010)

Assays:
[1] = concentrations comparable to the concentrations used by the applicant; cited from earlier work
[2] = tested on: T-24, HT-1197, HT-1376, MCF-7, A-549 and AsPC-1 cancer cell lines; assay: EC50 for Gem-induced cell death or growth inhibition with G418 at fixed concentrations; type: cell-based; conditions: G418 at fixed concentrations with no or little effect on their own; Gem 2 to 5 days
Experimental: Cell culture, cell death assays and growth assays—The T-24 and HT-1376 cell lines were purchased from the German Collection of Microorganisms and Cell Cultures and were cultivated in DMEM, high glucose, containing 10% Fetal Bovine Serum (FBS) or Minimum Essential Medium with 10% FBS and non-essential amino acids, respectively. HT-1197 was a gift from Bioxell (Milano) and was cultured like HT-1376. […] HT-1376 and its clones were incubated for 4 days and HT-1197 for 5 days with Gem including one medium change after 2 days. The percentage of dead cells that took up propidium iodide was determined using flow cytometry. […] Staining with Annexin-V-FITC was performed according to the manufacturer's description (Roche). […] Absorbance was read at 570 nm with reference at 650 nm.
G418 enhances Gem-induced cell death or growth inhibition in various cancer cell lines—Since enhancing Gem action would benefit therapy, we tested whether supplementing Gem with G418 could augment the effect of Gem also in other cancer cell lines. To this end, we added G418 at fixed concentrations and determined the EC50 value for Gem-induced cell death. […]
FIG. 6. […] Cell death was measured by propidium iodide dye exclusion except for MCF-7 and AsPC-1 where cell number was measured by MTT-assay. […]

[3] = tested on: clones of T-24, HT-1376 and HT-1197 bladder cancer cell lines; assay: Cell death by propidium iodide dye exclusion (flow cytometry) in Gem-sensitive and Gem-resistant clones; type: cell-based; conditions: 2 sensitive and 2 resistant clones per clone set; Gem 30 nM 2 days (T-24), 80 nM 4 days (HT-1376), 120 nM 5 days (HT-1197); G418 250 or 70 μg/ml, cycloheximide 500 ng/ml, rapamycin 10 nM
Experimental: (§1) Cell culture, cell death assays and growth assays—The T-24 and HT-1376 cell lines were purchased from the German Collection of Microorganisms and Cell Cultures and were cultivated in DMEM, high glucose, containing 10% Fetal Bovine Serum (FBS) or Minimum Essential Medium with 10% FBS and non-essential amino acids, respectively. HT-1197 was a gift from Bioxell (Milano) and was cultured like HT-1376. […] HT-1376 and its clones were incubated for 4 days and HT-1197 for 5 days with Gem including one medium change after 2 days. The percentage of dead cells that took up propidium iodide was determined using flow cytometry. […] Staining with Annexin-V-FITC was performed according to the manufacturer's description (Roche). To assess the cell number by staining with 3-(4,5-Dimethylthiazol-2-yl)-2,5-diphenyltetrazolium bromide (MTT), MTT was added at 500 μg/ml. After 2 hours, precipitate was solubilized by addition of 0.04N HCl/Isopropanol. Absorbance was read at 570 nm with reference at 650 nm.
Generation of Gemcitabine-resistant clones and stable cell lines—The T-24 cell line was incubated with 120 nM Gem for 3 days, HT-1376 with 160 nM Gem and HT-1197 with 1.6 μM for 7 days. […] Subsequently, the medium was changed for normal growth medium without Gem and the cells were grown for additional 1 to 3 weeks. […]
FIG. 5. […] Cell death was measured by propidium iodide dye exclusion using flow cytometry. […]

[4] = tested on: T-24, HT-1376 and HT-1197 cell lines and clones; assay: Metabolic labelling of protein synthesis with 35S-methionine/cysteine; type: cell-based
Experimental: Cells were labelled for 1.5 hours in growth medium without methionine and cysteine supplemented with 30 μCi/ml [^35S]-methionine/cysteine. Subsequently, the proteins were precipitated with TCA as described previously (Zhang et al., 2004). The incorporated radioactivity was expressed as counts/μg protein.
FIG. 3. Protein synthesis in the presence of Gem is higher in the resistant clones. […] Medium was removed and replaced for 1.5 h by medium containing 30 μCi/ml ^35S-methionine/cysteine (pulse). […] The reduction in radioactively labelled proteins due to protein degradation during the chase was significant as indicated. (B) The three parental cell lines and HT-1197 and T-24 stably expressing Bcl-2 were incubated with Gem as in (A) in the presence of 40 μM (T-24, HT-1376) or 80 μM z-VAD-fmk (HT-1197) or vehicle (DMSO). Subsequently, the cells were labelled as before. (C) Two sensitive and two resistant clones of each clone set were incubated and labelled as in (A). […] Results are from two independent experiments in duplicate. Error bars depict S.E.M. **P<0.01.
FIG. 5. Protein synthesis inhibitors diminish Gem resistance. (A) Two sensitive and two resistant clones of each clone set were incubated with Gem (T-24: 30 nM, 2 days; HT-1376: 80 nM, 4 days; HT-1197: 120 nM, 5 days). […] Cell death was measured by propidium iodide dye exclusion using flow cytometry. (B) The parental cell lines were incubated with Gem (T-24: 30 nM Gem, 1 day; HT-1376: 80 nM, 3 days; HT-1197: 120 nM, 3 days) in the absence or presence of the indicated protein synthesis inhibitors (250 μg/ml G418 for T-24, 80 μg/ml for HT-1376, 70 μg/ml for HT-1197; 500 ng/ml CHX for all cell lines; 10 nM rapamycin for all cell lines). Subsequently, cells were labeled with 30 μCi/ml ^35S-methionine/cysteine. (C) The parental cell lines were incubated with Gem like for the selection of the Gem-resistant clones and additionally G418 was added at 250 μg/ml (T-24), 80 μg/ml G418 (HT-1376) or 70 μg/ml G418 (HT-1197). Afterward, the remaining cells on the culture plate were stained with crystal violet. A representative assay is shown. All other data are from two independent experiments in duplicate. Error bars represent S.E.M. **P-<0.01, ***p<0.001.

T-24 and HT-1197 = assay: Form of Gem-induced cell death, Bcl-2 overexpression; type: cell-based; conditions: inhibited by Bcl-2 overexpression
Experimental: as §1
In HT-1376, apoptosis could not be inhibited by Bcl-2. However, this might be attributed to the relatively low overexpression of Bcl-2 (Supplementary FIG. 1).

[5] = tested on: eIF2α, eukaryotic initiation factor 4E binding protein 1, ribosomal protein S6; assay: Phosphorylation state of translation regulators upon Gem treatment; type: cell-based
Experimental: Quantitative real-time PCR and immunoblotting—We used the same RNA that was isolated for the DNA microarrays and prepared cDNA using Applied Biosystem (ABI) Reverse Transcription Reagents with random hexamer primers. Real-time PCR was performed using the PCR Master Mix (ABI) and ready-made TaqMan expression assays on an ABI Prism 7000. […] For this clone set, we used another “house-keeping gene”, HPRT1, for normalizing the expression values. Expression levels were calculated according to the formula: 1000*2^([…]). Cell lysis for protein extraction was performed on the same day as metabolic labelling. Immunoblotting was done as described previously (Abraham et al., 2005).

CN[C@@H]1[C@@H](O)[C@@H](O[C@@H]2[C@@H](O)[C@H](O[C@H]3O[C@H]([C@@H](C)O)[C@@H](O)[C@H](O)[C@H]3N)[C@@H](N)C[C@H]2N)OC[C@]1(C)O [G418]
Effects of G418 treatment on mice [1]: without detectable effects on mice
Decrease of the EC50 value for Gem-induced cell death by addition of G418 [2]: up to 30 fold

C[C@@H]1C[C@@H]([C@H](O)CC2CC(=O)NC(=O)C2)C(=O)[C@@H](C)C1 [cycloheximide]
Gem-induced cell death on concomitant treatment with a protein synthesis inhibitor [3]: inhibited Gem-induced cell death
Protein synthesis in the presence of Gem plus a protein synthesis inhibitor ([4]; parental cell lines, Gem 30 nM 1 day (T-24), 80 nM 3 days (HT-1376), 120 nM 3 days (HT-1197), G418 250/80/70 μg/ml, CHX 500 ng/ml, rapamycin 10 nM): increased protein synthesis compared to Gem alone

Nc1ccn([C@@H]2O[C@H](CO)[C@@H](O)C2(F)F)c(=O)n1 [Gem, 2′-2′-difluorodeoxycytidine]
Protein synthesis upon Gem treatment of the parental cell lines ([4]; T-24 30 nM 1 day, HT-1376 80 nM 3 days, HT-1197 120 nM 3 days): protein synthesis was reduced
Protein synthesis upon Gem treatment, resistant versus sensitive clones ([4]; two resistant and two sensitive clones of each clone set): decreased protein synthesis significantly less in the resistant clones compared to the sensitive clones
Form of cell death induced by Gem (T-24 and HT-1197): induced an apoptotic form of cell death
Phosphorylation state upon Gem treatment [5]: neither eIF2α nor eukaryotic initiation factor 4E binding protein 1 nor ribosomal protein S6 changed phosphorylation state

z-VAD-fmk
Protein synthesis rates with Gem in the presence of the caspase inhibitor ([4]; 40 μM (T-24, HT-1376) or 80 μM (HT-1197) z-VAD-fmk): did not alter the protein synthesis rates with Gem
